Consider three compounds from patent publication US20150296790A1, “SILICON-CONTAINING COMPOUND AQUEOUS SOLUTION AND ANTIBACTERIAL/ANTIVIRAL AGENT INCLUDING SAID SOLUTION” (JEX CO., LTD., priority 2012, published 2015).

This data set can be described thus: Solubility of CD (clarity and stability, visual). It counts as physicochemical. On the set-up: key to Solubility of CD: Stability: OK: When the aqueous CD solution did not exhibit the conditions such as presence of precipitates and deposits, the solution was considered as stable; NG: When the aqueous CD solution exhibited the conditions such as presence of precipitates and deposits, the solution was not considered as stable; key to Solubility of CD: Clarity: When the CD aqueous solution was clear, the solution was rated as “OK”; When the solution was not clear, the solution was rated as “NG”. As for the experimental part:
“Clarity” in “Solubility of CD” in the tables was determined by sequentially adding the CD and purified water at the respective ratio to a predetermined screw-cap bottle and stirring the mixture in the sealed bottle on a shaker to prepare the respective aqueous CD solution, which was then visually evaluated for clarity immediately after the preparation. When the CD aqueous solution was clear, the solution was rated as “OK”. When the solution was not clear, the solution was rated as “NG”. “Stability” in “Solubility of CD” in the tables was determined by allowing the respective aqueous CD solution after preparation to stand at ambient temperature for a predetermined period and then visually evaluating the conditions (such as presence of precipitates and deposits) of the solution.

Setting [1] is: Ratio of CD Alone 1 w/w % in purified water.
Where [2] appears, read: Ratio of CD Alone 2-6 w/w % in purified water.
Where [3] appears, read: Ratio of CD Alone 7 w/w % in purified water.
[4] abbreviates: Ratio of CD Alone 8-10 w/w % in purified water.
Where [5] appears, read: Ratio of CD Alone 2-10 w/w % in purified water.
[6] abbreviates: Ratio of CD Alone 2 w/w % in purified water.
[7] abbreviates: Ratio of CD Alone 3 w/w % in purified water.
[8] abbreviates: Ratio of CD Alone 4-5 w/w % in purified water.
Setting [9] is: Ratio of CD Alone 6 w/w % in purified water.
Where [10] appears, read: Ratio of CD Alone 7-9 w/w % in purified water.
Where [11] appears, read: Ratio of CD Alone 10 w/w % in purified water.
Where [12] appears, read: Ratio of CD Alone 15 w/w % in purified water.
[13] abbreviates: Ratio of CD Alone 20 w/w % in purified water.
Setting [14] is: Ratio of CD Alone 25 w/w % in purified water.

In the case of `OC[C@H]1O[C@@H]2O[C@H]3[C@H](O)[C@@H](O)[C@@H](O[C@H]4[C@H](O)[C@@H](O)[C@@H](O[C@H]5[C@H](O)[C@@H](O)[C@@H](O[C@H]6[C@H](O)[C@@H](O)[C@@H](O[C@H]7[C@H](O)[C@@H](O)[C@@H](O[C@H]1[C@H](O)[C@H]2O)O[C@@H]7CO)O[C@@H]6CO)O[C@@H]5CO)O[C@@H]4CO)O[C@@H]3CO` [α, α-cyclodextrin], the “Solubility of CD: Clarity” value is reported as “OK” under setting [1], “OK” under setting [2], “OK” under setting [3] and “NG” under setting [4]. The “Solubility of CD: Stability” value reads like this: under setting [1], “OK”; under setting [2], “OK”; under setting [3], “OK”; under setting [4], “NG”.

For `OC[C@H]1O[C@@H]2O[C@H]3[C@H](O)[C@@H](O)[C@@H](O[C@H]4[C@H](O)[C@@H](O)[C@@H](O[C@H]5[C@H](O)[C@@H](O)[C@@H](O[C@H]6[C@H](O)[C@@H](O)[C@@H](O[C@H]7[C@H](O)[C@@H](O)[C@@H](O[C@H]8[C@H](O)[C@@H](O)[C@@H](O[C@H]1[C@H](O)[C@H]2O)O[C@@H]8CO)O[C@@H]7CO)O[C@@H]6CO)O[C@@H]5CO)O[C@@H]4CO)O[C@@H]3CO` [β, β-cyclodextrin], the “Solubility of CD: Clarity” value is, setting by setting: under setting [1], “OK”; under setting [5], “NG”. Moreover, the “Solubility of CD: Stability” value was “OK” under setting [1] and “NG” under setting [5].

With `OC[C@H]1O[C@@H]2O[C@H]3[C@H](O)[C@@H](O)[C@@H](O[C@H]4[C@H](O)[C@@H](O)[C@@H](O[C@H]5[C@H](O)[C@@H](O)[C@@H](O[C@H]6[C@H](O)[C@@H](O)[C@@H](O[C@H]7[C@H](O)[C@@H](O)[C@@H](O[C@H]8[C@H](O)[C@@H](O)[C@@H](O[C@H]9[C@H](O)[C@@H](O)[C@@H](O[C@H]1[C@H](O)[C@H]2O)O[C@@H]9CO)O[C@@H]8CO)O[C@@H]7CO)O[C@@H]6CO)O[C@@H]5CO)O[C@@H]4CO)O[C@@H]3CO` [γ, γ-cyclodextrin], the “Solubility of CD: Clarity” value was “OK” under setting [1]; “OK” under setting [6]; “OK” under setting [7]; “OK” under setting [8]; “OK” under setting [9]; “OK” under setting [10]. Further, the “Solubility of CD: Clarity” value runs as follows: under setting [11], “OK”; under setting [12], “NG”; under setting [13], “NG”; under setting [14], “NG”. Also, the “Solubility of CD: Stability” value reads like this: under setting [1], “OK”; under setting [6], “OK”; under setting [7], “OK”; under setting [8], “OK”; under setting [9], “OK”; under setting [10], “OK”. The “Solubility of CD: Stability” value runs as follows: under setting [11], “OK”; under setting [12], “OK”; under setting [13], “OK”; under setting [14], “NG”.
